{"source": "patent US9545100B2", "about": "“Pesticidal compositions for insects and arthropods” (Stratacor, Inc., priority 2009, dated 2017)", "key": {"[1]": {"test_system": "Aedes aegypti mosquitoes", "experiment": "Olfactometer vapor phase repellency", "type": "in vivo", "settings": "FIG. 1", "excerpt": "As frequently seen in homologous series of insect repellents (Skinner, W. A. and Johnson, H. L. The design of insect repellents. In: Drug Design, Vol. 10, E J Ariens, Ed., Academic Press, New York, pp. 277-305, 1980), activity at lower chain length is limited by lack of persistence due to high volatility. Activity at higher chain length is limited by lack of volatility, as mosquito repellents are required to have a minimum effective evaporation rate (Reifenrath, W. G. and Robinson, P. B. In Vitro Skin Evaporation and Penetration Characteristics of mosquito repellents. J. Pharm. Sci, 71:1014-1018, 1982; Reifenrath, W. G. and Spencer, T. S. Evaporation and penetration from skin. In: Percutaneous Absorption Mechanisms Methodology Drug Delivery, R L Bronaugh and H I Maibach, Eds., 1st Ed., Marcel Dekker, New York, pp. 305-325, 1985).\nThe straight chain fatty acids octanoic, nonanoic, decanoic, undecanoic, and lauric are designated as C8 through C12, respectively; 3-methylpentanoic acid as 3MPENTAN, 3-methyl-2-pentenoic acid as 3M2PENTEN, 2-octenoic acid as 2OCTEN, 3-methyl-2-octenoic acid as 3M2OCTEN, and 4-methyloctanoic acid as 4MOCTAN. N,N-Diethyl-m-toluamide is designated as DEET."}, "[2]": {"test_system": "eggs of Aedes aegypti", "settings": "Cline 1972; cited from earlier work"}, "[3]": {"test_system": "Aedes aegypti mosquitoes", "method": "Fifteen female Aedes aegypti mosquitoes were placed in the dishes and their fate observed over a 48 hour period.\nTo further investigate the incapacitating and lethal effect of the C8910 composition, water dispersions of the same formulation of C8910 were tested in the laboratory against Aedes aegypti mosquitoes. Graded dilutions of C8910/Kaolin-P were prepared by dispersing the powder in water (2 grams of powder in 100 ml of water, the concentration used in the field) where the lowest concentration was 0.0075% (Table 1). One ml of each dispersion was evenly pipetted over a disk of filter paper (9 cm diameter, Whatman No. 1) contained in disposable petri dishes. Approximately 15 female Aedes aegypti mosquitoes, 6-10 days of age, were placed in the Petri dishes and covered to prevent mosquito escape. The dishes were maintained in an environmental chamber (76-80° F. and approximately 60% humidity) and observations were made of incapacitation and mortality at various times after treatments (Table 1)."}, "[4]": {"test_system": "Aedes aegypti", "experiment": "Minimum effective dose to repel mosquitoes, applied to the skin", "type": "in vivo", "method": "Notes: • 1. Even at the lowest dose (1.18 ug/cm2), there are behavioral effects from […]. […] After 16 minutes exposure, mosquitoes were transferred to fresh plates containing only distilled water. […] […] and DEET (N,N-diethyl-m-toluamide) have similar potencies to repel Aedes aegypti when both are applied to the skin. The minimum effective dose (MED) of […] to repel mosquitoes is estimated at 25 ug/cm^2, the measured MED value for DEET."}, "[5]": {"test_system": "flies"}, "[6]": {"test_system": "house fly larvae", "settings": "Levinson and Simon Ascher 1954; cited from earlier work"}, "[7]": {"test_system": "Aedes aegypti instar IV larvae and pupae", "settings": "Quraishi and Thorsteinson 1965; cited from earlier work"}, "[8]": {"settings": "emulsion formulations; cited from earlier work"}, "[9]": {"settings": "20° C.; cited from earlier work"}, "[10]": {"settings": "0.3000% in water dispersion, dose 47 ug/cm2"}}, "note": "Read-outs that look alike come from different tables or passages of the source.", "data": [{"smiles": "CCCCCCCC(=O)O", "note": "[C8, octanoic acid]", "values": [{"measurement": "repellency in olfactometer", "setting": "[1]", "value": "at or near the top of the repellency"}, {"measurement": "ovicidal activity", "setting": "[2]", "value": "ovicidal activity"}]}, {"smiles": "CCCCCCCCC(=O)O", "note": "[C9, nonanoic acid]", "values": [{"measurement": "repellency in olfactometer", "setting": "[1]", "value": "at or near the top of the repellency"}, {"measurement": "ovicidal activity", "setting": "[2]", "value": "ovicidal activity"}]}, {"smiles": "CCCCCCCCCC(=O)O", "note": "[C10, decanoic acid]", "values": [{"measurement": "repellency in olfactometer", "setting": "[1]", "value": "at or near the top of the repellency"}]}, {"smiles": "CCN(CC)C(=O)c1cccc(C)c1", "note": "[DEET, N,N-diethyl-m-toluamide]", "values": [{"measurement": "immediate incapacitation", "setting": "[3]; 47 ug/cm^2", "value": "did not involve immediate incapacitation"}, {"measurement": "mortality at 24 hours", "setting": "[3]; 47 ug/cm^2", "value": "did cause fly and mosquito mortality"}, {"measurement": "minimum effective dose (MED) to repel mosquitoes", "setting": "[4]", "value": 25, "unit": "ug/cm^2"}, {"measurement": "immediate incapacitation", "setting": "[5]; 47 ug/cm^2", "value": "did not involve immediate incapacitation"}, {"measurement": "mortality at 24 hours", "setting": "[5]; 47 ug/cm^2", "value": "did cause fly and mosquito mortality"}]}, {"smiles": "CC(O)C(=O)O", "note": "(stereo not shown) [Lactic Acid, lactic acid]", "values": [{"measurement": "% Incapac. in 10 m exp.", "setting": "[3]; [10]", "value": 0, "unit": "%"}, {"measurement": "% Incapac. in 25 m exp.", "setting": "[3]; [10]", "value": 0, "unit": "%"}, {"measurement": "% Incapac. in 24 h exp.", "setting": "[3]; [10]", "value": 17, "unit": "%"}, {"measurement": "% motality at 24 hours", "setting": "[3]; [10]", "value": 17, "unit": "%"}, {"measurement": "% motality at 48 hours", "setting": "[3]; [10]", "value": 17, "unit": "%"}, {"measurement": "% Incapac. in 10 m exp.", "setting": "[3]; 0.3000% in water dispersion, dose 47 ug/cm2, listed as lactic acid", "value": "no incapacitation"}, {"measurement": "number dead, noted beside % Incapac. in 24 h exp.", "setting": "[3]; 0.3000%, dose 47 ug/cm2", "value": "(2 dead)"}, {"measurement": "toxicity to flies", "setting": "[5]; test of acidic pH", "value": "nontoxic to flies"}]}, {"smiles": "CCCCCCCCCCCC(=O)O", "note": "[Lauric acid, lauric acid]", "values": [{"measurement": "toxicity to flies", "setting": "[5]; EC formulation", "value": "non-toxic"}, {"measurement": "larvicidal activity for housefly larvae", "setting": "[6]", "value": "declining activity"}, {"measurement": "toxicity to instar IV larvae and pupae", "setting": "[7]", "value": "not"}]}, {"smiles": "CCN(CC)CC(=O)Nc1c(C)cccc1C", "note": "[lidocaine free base, lidocaine]", "values": [{"measurement": "fly incapacitation", "setting": "[5]; freshly prepared aqueous emulsions 47 ug/cm^2 or 15% concentration in mineral oil", "value": "did not cause fly incapacitation"}]}, {"smiles": "CC1(C)C(C=C(Cl)Cl)C1C(=O)OCc1cccc(Oc2ccccc2)c1", "note": "(stereo not shown) [permethrin]", "values": [{"measurement": "reversibility of incapacitation", "setting": "[3]; dose of 4.7 ug/cm^2", "value": "irreversible"}, {"measurement": "reversibility of incapacitation", "setting": "[5]; dose of 4.7 ug/cm^2", "value": "irreversible"}, {"measurement": "skin absorption", "setting": "[8]", "value": "about 30%"}, {"measurement": "vapor pressure", "setting": "[9]", "value": "about 10^−8 mm Hg"}]}, {"smiles": "CCCCCCCCCCC(=O)O", "note": "[undecanoic acid]", "values": [{"measurement": "larvicidal activity for housefly larvae", "setting": "[6]", "value": "declining activity"}]}, {"smiles": "C=CCCCCCCCCC(=O)O", "note": "[undecylenic]", "values": [{"measurement": "ovicidal activity", "setting": "[2]", "value": "ovicidal activity"}]}]}
